Assay results as given in EP0485091A1, “Process for the production of analogues of immunomycin” (MERCK & CO. INC., priority 1990, dated 1992).

System: T lymphocytes
Assay: T-cell proliferation assay (tritiated thymidine uptake, ionomycin + PMA stimulation; also called IL-2 assay)
Type: cell-based, C57B1/6 mice
Settings: for IC50: Mouse T cell cultures, pulsed with 3H-thymidine for 4 hours prior to harvesting at 48 hours
Protocol: Cells were pelleted by centrifugation at 1500 rpm for 8 minutes. Contaminating red cells were removed by treating the pellet with ammonium chloride lysing buffer (GIBCO) for 2 minutes at 4°C. Cold medium was added and cells were again centrifuged at 1500 rpm for 8 minutes. T lymphocytes were then isolated by separation of the cell suspension on nylon wool columns as follows: Nylon wool columns were prepared by packing approximately 4 grams of washed and dried nylon wool into 20 ml plastic syringes. The columns were sterilized by autoclaving at 250°F for 30 minutes. Nylon wool columns were wetted with warm (37°C) culture medium and rinsed with the same medium. Washed spleen cells resuspended in warm medium were slowly applied to the nylon wool. The columns were then incubated in an upright position at 37°C for 1 hour. Non-adherent […] were eluted from the columns with warm culture medium and the cell suspensions were spun as above.
The cell suspension was immediately distributed into 96 well flat-bottom microculture plates (Costar) at 200 µl/well. […] The proliferation of T lymphocytes was assessed by measurement of tritiated thymidine incorporation. After 44 hours of culturing, the cells were pulse-labelled with 2 µCi/well of tritiated thymidine (NEN, Cambridge, MA). After another 4 hours of incubation, cultures were harvested on glass fiber filters using a multiple sample harvester. Radioactivity of filter discs corresponding to individual wells as measured by standard liquid scintillation counting methods (Betacounter). Mean counts per minute of replicate wells were calculated and the results expressed as percent inhibition of tritiated thymidine uptake (profileration) as follows [drawing 11]
• 1. Mouse T cell cultures were pulsed with ³H-thymidine for 4 hours prior to harvesting at 48 hours. • 2.

Row | SMILES | Inhibition of T-cell proliferation after addition of recombinant human IL-2 (50 units/ml of recombinant human IL-2 added at the initiation of culture) | IC50 (T-lymphocyte) | IC50 (T-lymphocyte, same value in molar unit) | inhibition at 0.01 µg/mL (Mus musculus, T-lymphocyte, 48 h, read-out: percent inhibition of tritiated thymidine uptake (proliferation))
1 | CCC[C@@H]1/C=C(\C)C[C@H](C)C[C@H](OC)[C@H]2O[C@@](O)(C(=O)C(=O)N3CCCC[C@H]3C(=O)O[C@H](/C(C)=C/[C@@H]3CC[C@@H](O)[C@H](OC)C3)[C@H](C)[C@@H](O)CC1=O)[C@H](C)C[C@@H]2OC [fraction 510] | reversed | 0.82 ng/mL | 1.02 nM | –
2 | C=CC[C@@H]1/C=C(\C)C[C@H](C)C[C@H](OC)[C@H]2O[C@@](O)(C(=O)C(=O)N3CCCC[C@H]3C(=O)O[C@H](/C(C)=C/[C@@H]3CC[C@@H](O)[C@H](OC)C3)[C@H](C)[C@@H](O)CC1=O)[C@H](C)C[C@@H]2OC [L-679,934, reference compound] | – | – | – | 99%
